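These data come from cells grown in 96-well plates and exposed to compound for 48 hours at five concentrations. GI50 is the concentration that inhibits growth by half. TGI denotes the concentration required for complete inhibition of growth.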
Assays:
Experiment in all cases: NCI-60 cell line screen, 48 h
EKVX NSCLC = system: EKVX NSCLC
HOP-62 NSCLC = system: HOP-62 NSCLC
IGROV1 ovarian = system: IGROV1 ovarian
NCI-H460 lung = system: NCI-H460 lung
OVCAR-5 ovarian = system: OVCAR-5 ovarian
SK-MEL-2 melanoma = system: SK-MEL-2 melanoma
TK-10 renal = system: TK-10 renal
MDA-MB-231 breast = system: MDA-MB-231 breast
MDA-MB-435 = system: MDA-MB-435
PC-3 prostate = system: PC-3 prostate

Structure (SMILES)	TGI (EKVX NSCLC)	TGI (HOP-62 NSCLC)	TGI (IGROV1 ovarian)	TGI (NCI-H460 lung)	TGI (OVCAR-5 ovarian)	TGI (SK-MEL-2 melanoma)	TGI (TK-10 renal)	GI50 (HOP-62 NSCLC)	GI50 (IGROV1 ovarian)	GI50 (MDA-MB-231 breast)	TGI (MDA-MB-231 breast)	GI50 (MDA-MB-435)	TGI (MDA-MB-435)	GI50 (NCI-H460 lung)	GI50 (OVCAR-5 ovarian)	GI50 (PC-3 prostate)	TGI (PC-3 prostate)	GI50 (SK-MEL-2 melanoma)	GI50 (TK-10 renal)
O=C(O)c1ccccc1NC(=O)C1CCCCC1	> 100 µM	> 100 µM	> 100 µM	> 100 µM	> 100 µM	> 100 µM	> 100 µM												
c1ccc2c(c1)C1=NCCN1c1ccccc1-2	35.5 µM	13.3 µM	17.2 µM	4 µM	15.2 µM	8.05 µM	12 µM												
O=C(CC1C(=O)Nc2ccccc2S1=O)Nc1ccc(Cl)cc1 (stereo not drawn)		> 100 µM	> 100 µM	> 100 µM	> 100 µM	> 100 µM	> 100 µM												
COC1OC2COC(c3ccccc3)OC2C(O)C1Br (stereo not drawn)		> 100 µM	> 100 µM	> 100 µM	> 100 µM		> 100 µM												
Cn1c(=O)c(Oc2ccc(F)cc2F)cc2cnc(NCCS(C)(=O)=O)nc21		> 25 µM	> 25 µM	> 25 µM	> 25 µM	> 25 µM	> 25 µM	> 25 µM	> 25 µM	> 25 µM	> 25 µM	> 25 µM	> 25 µM	> 25 µM	> 25 µM	> 25 µM	> 25 µM	> 25 µM	> 25 µM
O=C1C=CC(CC(=O)c2ccc3ccccc3c2)O1 (stereo not drawn)	> 100 µM	36.6 µM	65.2 µM	55.2 µM	41.5 µM	47.5 µM	69.8 µM												
COc1ccc(Nc2cc(C)nc(N3CCN(c4ccnc5cc(Cl)ccc45)CC3)n2)cc1		> 100 µM	> 100 µM	> 100 µM			47.6 µM	3.89 µM	4.39 µM	2.31 µM	> 100 µM	1.06 µM	6.43 µM	1.92 µM		2.21 µM	> 100 µM		3.64 µM
COc1cc(Cl)cc(-c2nn(-c3cccc(NC(=O)Nc4ccc(Cl)c(C(F)(F)F)c4)c3)cc2-c2ccncc2)c1		6.32 µM	29.1 µM	4.08 µM	7.15 µM	4.21 µM		2.12 µM	3.2 µM	1.44 µM	3.74 µM	1.76 µM	4.36 µM	0.77 µM	2.13 µM	0.342 µM	2.12 µM	1.79 µM	
CC12Oc3ccc4ccccc4c3CC1Cc1c(ccc3ccccc13)O2 (stereo not drawn)	> 100 µM	> 100 µM		> 100 µM	> 100 µM	> 100 µM	> 100 µM												
Cc1nc(Nc2nc3ccccc3o2)nc(-c2cccc([N+](=O)[O-])c2)c1C(=O)Nc1ccc(F)c(Cl)c1		50.4 µM	> 100 µM	17.7 µM	> 100 µM	4.73 µM	12.2 µM	2.58 µM	2.94 µM	1.88 µM	4.82 µM	2.16 µM	8.01 µM	1.43 µM	3.8 µM	0.797 µM	11.5 µM	2.03 µM	2.07 µM
C[C@H]1C(=O)CC[C@]2(C)CCC(C(C)(C)O)CC12O (stereo partly drawn)	> 100 µM	> 100 µM	> 100 µM	> 100 µM	> 100 µM	> 100 µM	> 100 µM												
COc1ccc(-c2nn(-c3cccc(NC(=O)c4ccc(N5CCOCC5)c(C(F)(F)F)c4)c3)cc2-c2ccncc2)cc1Cl		> 50 µM	> 50 µM	> 50 µM	> 50 µM	> 50 µM	> 50 µM	11.4 µM	> 50 µM	2.29 µM	> 50 µM	2.6 µM	35 µM	5.23 µM	> 50 µM	3.49 µM	> 50 µM	16.3 µM	> 50 µM
O=[N+]([O-])c1ccc(Cl)cc1C1SCc2nc3ccccc3n21 (stereo not drawn)	> 100 µM	> 100 µM	> 100 µM	23.4 µM		> 100 µM	> 100 µM												
Oc1ccc(Cl)cc1CNc1nc2ccccc2[nH]1		27.2 µM	41.3 µM	26.3 µM	34.4 µM	33 µM	31.2 µM	11.8 µM	18.3 µM	8.31 µM	22.4 µM	13.2 µM	26.2 µM	12.5 µM	17.8 µM	9.75 µM	23.3 µM	15.9 µM	15.7 µM
O=C1OC(OCC#CCOC2OC(=O)C(Cl)=C2Cl)C(Cl)=C1Cl (stereo not drawn)	40.1 µM	26.7 µM	29.9 µM	58.9 µM	33.2 µM	32.2 µM	21.8 µM						27.2 µM				27.1 µM		
O=S(=O)(C/C(=N\O)c1ccccc1)c1ccccc1	> 100 µM	> 100 µM	> 100 µM	> 100 µM	> 100 µM	> 100 µM	> 100 µM												
Cc1cc2c(C)n(Cc3ccc(Cl)cc3Cl)nc2c(C(=O)O)c1C	> 100 µM	> 100 µM	> 100 µM	> 100 µM	> 100 µM	> 100 µM	> 100 µM												
O=C1c2nc3n(c2C(=O)c2c1nc1n2CCC1)CCC3	31.2 µM	15.9 µM	24.5 µM	6.24 µM	30.7 µM	13.5 µM	> 77.2 µM	5.19 µM					3.48 µM	3.89 µM				4.39 µM	
Cc1ccccc1-n1c(C)nc(-c2ccccc2)cc1=O	> 100 µM	> 100 µM	> 100 µM	> 100 µM	> 100 µM	> 100 µM	> 100 µM												
Nn1c(N=Nc2c(O)[nH]c3c(Cl)cc(Cl)cc23)n[nH]c1=S	> 100 µM	> 100 µM	> 100 µM	> 100 µM	> 100 µM	> 100 µM	> 100 µM												
O=C(Nc1ccc(Cl)c(Cl)c1)OCCN1c2ccccc2Sc2ccccc21		> 10 µM	> 10 µM		> 10 µM		> 10 µM				> 10 µM		> 10 µM				> 10 µM		

From PubChem BioAssay (NCI)
